In ChEMBL document CHEMBL1201862, “PubChem BioAssay data set” (2004):
The source made the active and inactive calls.

What was measured:
[1] = molecular target: Sphingosine 1-phosphate receptor 2 (Homo sapiens, UniProt O95136); assay: Dose Response Cell Based Assay for Antagonists of the S1P2 Receptor. [Related pubchem assays: 856, 736 ]; format: functional
[2] = system: CHO-K1; assay: (§1) Counterscreen for antagonists of the orexin 1 receptor (OX1R; HCRTR1): Homogeneous time resolved fluorescence (HTRF)-based cell-based dose response assay to identify antagonists of the parental CHO-K1 cell line. [Related pubchem assays (depositor defined):AID434989, AID435008, AID463079, AID485270, AID492963, AID492964, AID492965, AID493232, AID504699, AID504701]; format: functional; details: Cricetulus griseus
[3] = system: Jurkat; assay: antigen receptor-induced NF-kB inhibitors, dose response, Jurkat, luciferase reporter, luminescence, B- and T-cell (AID 489004); format: functional, cell-based; details: Homo sapiens;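 also: NF-kB luciferase reporter Jurkat cells stimulated with PMA plus ionomycin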
[4] = as §1, with “Fluorescence-based” for “Homogeneous time resolved fluorescence (HTRF)-based”, “cell-based high throughput” for “cell-based”, “CHO” for “CHO-K1”; format: functional
[5] = cytotoxicity in HEK-293T NF-kB-Luc cells, dose response, cytotoxicity control for B/T-cell NF-kB inhibitor project, cell-based, uHTS hits (AID 489019); format: functional;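 also: IC50 reflects cytotoxicity as loss of cell viability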
[6] = molecular target: T1, Orexin/Hypocretin receptor type 1 (Homo sapiens, UniProt O43613); assay: Homogeneous Time Resolved Fluorescence (HTRF)-based cell-based high throughput dose response assay for antagonists of the orexin 1 receptor (OX1R; HCRTR1). [Related pubchem assays (depositor defined):AID434989, AID435008, AID463079, AID485270, AID492963, AID492964, AID492965, AID493232, AID504717, AID504718]; format: functional
T1 sequence (O43613 whole entry): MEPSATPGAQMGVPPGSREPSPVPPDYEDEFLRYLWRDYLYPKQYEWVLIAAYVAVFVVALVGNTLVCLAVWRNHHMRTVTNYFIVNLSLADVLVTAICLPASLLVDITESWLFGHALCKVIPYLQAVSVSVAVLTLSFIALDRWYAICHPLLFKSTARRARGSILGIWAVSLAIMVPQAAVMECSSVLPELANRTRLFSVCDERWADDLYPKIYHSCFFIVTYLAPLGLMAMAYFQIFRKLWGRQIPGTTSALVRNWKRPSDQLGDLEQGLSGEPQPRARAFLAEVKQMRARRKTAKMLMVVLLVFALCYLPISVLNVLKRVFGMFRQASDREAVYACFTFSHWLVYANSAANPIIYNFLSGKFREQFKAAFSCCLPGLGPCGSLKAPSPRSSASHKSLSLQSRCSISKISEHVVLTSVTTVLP

[7] = molecular target: T1, Orexin/Hypocretin receptor type 1; assay: Fluorescence-based cell-based high throughput dose response assay for antagonists of the orexin 1 receptor (OX1R; HCRTR1). [Related pubchem assays (depositor defined):AID434989, AID435008, AID463079, AID485270, AID492963, AID492964, AID492965, AID493232, AID504717, AID504718]; format: functional
[8] = molecular target: T2, Microphthalmia-associated transcription factor (Homo sapiens, UniProt O75030); assay: TRPM1 promoter luciferase signal decrease, dose response, MITF inhibitor project, cell-based, SK-MEL-5, cherry-picked, set 3 (AID 493073); format: functional
T2 sequence (O75030 whole entry): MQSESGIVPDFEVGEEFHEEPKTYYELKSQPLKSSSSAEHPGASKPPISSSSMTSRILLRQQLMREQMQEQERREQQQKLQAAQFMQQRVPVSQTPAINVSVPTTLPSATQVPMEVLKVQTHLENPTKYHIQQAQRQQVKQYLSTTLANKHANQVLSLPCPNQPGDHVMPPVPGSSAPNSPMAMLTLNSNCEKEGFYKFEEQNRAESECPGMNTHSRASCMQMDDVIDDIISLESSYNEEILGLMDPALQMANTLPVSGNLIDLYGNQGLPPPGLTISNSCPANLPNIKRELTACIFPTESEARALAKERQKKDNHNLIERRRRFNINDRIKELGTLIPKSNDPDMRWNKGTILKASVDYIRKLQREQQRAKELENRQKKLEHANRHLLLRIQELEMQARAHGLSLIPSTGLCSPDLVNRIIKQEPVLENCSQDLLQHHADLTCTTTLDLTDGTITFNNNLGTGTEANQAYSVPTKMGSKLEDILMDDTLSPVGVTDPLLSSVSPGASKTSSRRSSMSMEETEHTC

[9] = system: INS1; assay: beta cell apoptosis inhibitors, cytokine rescue, dose response, luminescence, retest (AID 449756); format: functional, cell-based; details: Rattus norvegicus;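 also: cell death triggered by IL-1 beta plus TNF-alpha plus IFN-gamma mixture; protective hits raise ATP signal compared with cytokine alone wells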
[10] = Shn3 3'UTR reporter inhibitors, dose response, cell-based, Clone20 osteoblasts, firefly luciferase, cherry-picked (AID 624132); format: functional;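 also: firefly luciferase luminescence from reporter carrying the Shn3 3'UTR in osteoblasts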
[11] = HepG2 cell cytotoxicity, dose response, cytotoxicity control for Shn3 inhibitor project, CellTiter-Glo, cherry-picked (AID 624134); format: functional, cell-based
[12] = molecular target: T3, Orexin receptor type 2 (Homo sapiens, UniProt O43614); assay: Counterscreen assay for antagonists of the orexin 1 receptor (OX1R; HCRTR1): Fluorescence-based cell-based dose response assay for antagonists of the orexin 2 receptor (OX2R; HCRTR2), run by assay provider.; format: functional
T3 sequence (O43614 whole entry): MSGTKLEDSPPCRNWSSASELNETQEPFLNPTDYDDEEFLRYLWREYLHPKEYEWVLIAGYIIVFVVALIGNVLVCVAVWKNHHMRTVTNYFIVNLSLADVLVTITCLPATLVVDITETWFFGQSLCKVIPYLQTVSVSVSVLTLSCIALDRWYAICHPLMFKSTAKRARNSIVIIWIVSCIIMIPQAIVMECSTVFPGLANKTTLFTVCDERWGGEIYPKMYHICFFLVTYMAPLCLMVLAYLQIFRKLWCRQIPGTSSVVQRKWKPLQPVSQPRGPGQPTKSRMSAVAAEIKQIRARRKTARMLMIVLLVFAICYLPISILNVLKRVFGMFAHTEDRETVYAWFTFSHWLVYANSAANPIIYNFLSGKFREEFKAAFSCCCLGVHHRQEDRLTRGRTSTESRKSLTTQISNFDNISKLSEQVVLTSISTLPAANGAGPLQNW

[13] = control 3'UTR Renilla luciferase suppression, dose response, counter-screen for Shn3 inhibitor project, cell-based, Clone20-Shn3RL, cherry-picked (AID 624133); format: functional
[14] = molecular target: T3, Orexin receptor type 2; assay: Counterscreen assay for antagonists of the orexin 1 receptor (OX1R; HCRTR1): Homogeneous Time Resolved Fluorescence (HTRF)-based cell-based dose response assay for antagonists of the orexin 2 receptor (OX2R; HCRTR2), run by assay provider.; format: functional
[15] = molecular target: Fatty acid synthase (Homo sapiens, UniProt P49327); assay: FAS thioesterase domain inhibitors, dose response, biochemical, kinetic fluorescence intensity (AID 624326); format: functional;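 also: rate of fluorescence rise from hydrolysis of a fluorogenic O-methyl fluorescein ester substrate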
[16] = molecular target: T4, Nucleotide-binding oligomerization domain-containing protein 1 (Homo sapiens, UniProt Q9Y239); assay: SAR analysis of compounds that inhibit NOD1 - Set 3. [Related pubchem assays (depositor defined):AID1566, AID1575, AID1578, AID1849, AID1852, AID2333, AID2335, AID2466]; format: functional
T4 sequence (Q9Y239 whole entry): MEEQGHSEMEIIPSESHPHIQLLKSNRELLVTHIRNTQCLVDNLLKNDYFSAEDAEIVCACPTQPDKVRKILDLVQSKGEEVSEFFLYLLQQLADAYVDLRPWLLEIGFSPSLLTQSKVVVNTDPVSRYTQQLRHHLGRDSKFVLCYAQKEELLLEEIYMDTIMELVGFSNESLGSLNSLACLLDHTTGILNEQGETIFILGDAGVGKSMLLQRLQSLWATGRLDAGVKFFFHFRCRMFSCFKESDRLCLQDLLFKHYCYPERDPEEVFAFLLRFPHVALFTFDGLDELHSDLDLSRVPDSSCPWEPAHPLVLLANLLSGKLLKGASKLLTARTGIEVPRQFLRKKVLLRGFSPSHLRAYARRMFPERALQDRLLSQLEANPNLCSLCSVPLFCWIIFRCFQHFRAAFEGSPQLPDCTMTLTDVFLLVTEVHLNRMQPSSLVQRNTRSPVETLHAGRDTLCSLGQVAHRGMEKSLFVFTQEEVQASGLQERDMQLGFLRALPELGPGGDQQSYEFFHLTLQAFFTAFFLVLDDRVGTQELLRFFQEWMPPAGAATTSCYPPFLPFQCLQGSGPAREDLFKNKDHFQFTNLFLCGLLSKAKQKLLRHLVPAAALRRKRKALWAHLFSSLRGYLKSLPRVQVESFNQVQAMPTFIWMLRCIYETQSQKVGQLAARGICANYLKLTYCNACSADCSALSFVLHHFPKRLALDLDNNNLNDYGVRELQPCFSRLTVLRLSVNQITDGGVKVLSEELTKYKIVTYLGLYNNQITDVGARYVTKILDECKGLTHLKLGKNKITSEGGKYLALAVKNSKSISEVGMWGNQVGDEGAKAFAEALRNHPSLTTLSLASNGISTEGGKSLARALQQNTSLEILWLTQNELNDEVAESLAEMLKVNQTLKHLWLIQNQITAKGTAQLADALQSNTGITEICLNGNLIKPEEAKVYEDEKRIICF

[17] = molecular target: T5, Tumor necrosis factor (Homo sapiens, UniProt P01375); assay: TNFa-triggered NF-kB activation inhibitors, SAR follow-up, cell-based, set 3 (AID 2801); format: functional
[18] = system: HEK293; assay: SAR analysis of compounds that are cytotoxic to HEK293 - Set 3. [Related pubchem assays (depositor defined):AID1575, AID1578, AID1848, AID1849, AID2001, AID2333, AID2334, AID2335, AID2337, AID2469]; format: functional, cell-based; details: Homo sapiens
[19] = molecular target: Nucleotide-binding oligomerization domain-containing protein 2 (Homo sapiens, UniProt Q9HC29); assay: NOD2 signaling inhibitors, analog potency, SAR follow-up, cell-based, set 3 (AID 2799); format: functional
[20] = molecular target: T5, Tumor necrosis factor; assay: TNFa-triggered NF-kB activation inhibitors, SAR follow-up, cell-based, revised (AID 2337); format: functional
[21] = molecular target: T4, Nucleotide-binding oligomerization domain-containing protein 1; assay: NOD1 signaling inhibitors, SAR follow-up, revised (AID 2333); format: functional
[22] = system: HEK293; assay: cells; details: Homo sapiens

T5 sequence (P01375 whole entry): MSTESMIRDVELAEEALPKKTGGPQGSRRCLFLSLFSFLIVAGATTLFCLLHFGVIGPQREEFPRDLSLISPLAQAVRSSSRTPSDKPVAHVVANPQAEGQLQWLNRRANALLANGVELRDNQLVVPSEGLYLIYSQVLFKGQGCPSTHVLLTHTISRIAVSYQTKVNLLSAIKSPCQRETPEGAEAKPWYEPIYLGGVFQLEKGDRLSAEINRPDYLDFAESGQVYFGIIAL
Sequence of Nucleotide-binding oligomerization domain-containing protein 2 (Q9HC29 whole entry, the tested form may be a part): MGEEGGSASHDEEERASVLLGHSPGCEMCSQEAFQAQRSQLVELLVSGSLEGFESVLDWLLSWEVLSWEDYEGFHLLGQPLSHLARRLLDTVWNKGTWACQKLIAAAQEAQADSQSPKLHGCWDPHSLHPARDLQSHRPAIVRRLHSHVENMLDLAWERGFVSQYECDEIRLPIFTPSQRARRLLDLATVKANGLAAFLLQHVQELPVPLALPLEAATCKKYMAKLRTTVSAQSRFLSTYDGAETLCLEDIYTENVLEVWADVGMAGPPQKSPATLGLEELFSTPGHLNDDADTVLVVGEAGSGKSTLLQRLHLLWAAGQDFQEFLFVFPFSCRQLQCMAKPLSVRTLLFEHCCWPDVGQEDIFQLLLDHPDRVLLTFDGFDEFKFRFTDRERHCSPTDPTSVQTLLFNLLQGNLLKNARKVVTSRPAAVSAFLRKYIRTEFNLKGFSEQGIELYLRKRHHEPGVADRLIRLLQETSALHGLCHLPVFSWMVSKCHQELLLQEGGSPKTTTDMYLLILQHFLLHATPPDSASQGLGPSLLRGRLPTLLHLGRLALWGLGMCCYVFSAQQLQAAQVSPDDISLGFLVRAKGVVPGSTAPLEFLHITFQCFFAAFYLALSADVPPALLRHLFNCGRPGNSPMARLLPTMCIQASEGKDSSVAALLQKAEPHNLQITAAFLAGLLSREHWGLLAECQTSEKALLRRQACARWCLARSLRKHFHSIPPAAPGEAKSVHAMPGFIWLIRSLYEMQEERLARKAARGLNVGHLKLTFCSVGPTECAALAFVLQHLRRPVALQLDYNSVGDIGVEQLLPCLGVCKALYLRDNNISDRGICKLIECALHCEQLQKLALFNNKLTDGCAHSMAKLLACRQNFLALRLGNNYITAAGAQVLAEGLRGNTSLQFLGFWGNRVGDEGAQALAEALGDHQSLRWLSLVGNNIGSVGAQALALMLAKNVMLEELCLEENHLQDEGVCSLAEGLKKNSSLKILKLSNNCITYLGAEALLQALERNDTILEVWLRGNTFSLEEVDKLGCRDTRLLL
Sequence of Sphingosine 1-phosphate receptor 2 (O95136 whole entry): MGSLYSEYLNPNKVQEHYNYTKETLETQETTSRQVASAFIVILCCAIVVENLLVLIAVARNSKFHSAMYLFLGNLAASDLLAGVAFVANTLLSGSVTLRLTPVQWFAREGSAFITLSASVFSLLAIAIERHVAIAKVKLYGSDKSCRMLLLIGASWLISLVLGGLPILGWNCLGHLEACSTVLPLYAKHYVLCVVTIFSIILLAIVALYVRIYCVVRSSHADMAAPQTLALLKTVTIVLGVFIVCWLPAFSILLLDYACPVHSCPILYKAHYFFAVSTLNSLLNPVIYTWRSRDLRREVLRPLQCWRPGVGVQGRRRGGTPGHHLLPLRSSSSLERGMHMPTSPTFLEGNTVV
Sequence of Fatty acid synthase (P49327 whole entry, the tested form may be a part): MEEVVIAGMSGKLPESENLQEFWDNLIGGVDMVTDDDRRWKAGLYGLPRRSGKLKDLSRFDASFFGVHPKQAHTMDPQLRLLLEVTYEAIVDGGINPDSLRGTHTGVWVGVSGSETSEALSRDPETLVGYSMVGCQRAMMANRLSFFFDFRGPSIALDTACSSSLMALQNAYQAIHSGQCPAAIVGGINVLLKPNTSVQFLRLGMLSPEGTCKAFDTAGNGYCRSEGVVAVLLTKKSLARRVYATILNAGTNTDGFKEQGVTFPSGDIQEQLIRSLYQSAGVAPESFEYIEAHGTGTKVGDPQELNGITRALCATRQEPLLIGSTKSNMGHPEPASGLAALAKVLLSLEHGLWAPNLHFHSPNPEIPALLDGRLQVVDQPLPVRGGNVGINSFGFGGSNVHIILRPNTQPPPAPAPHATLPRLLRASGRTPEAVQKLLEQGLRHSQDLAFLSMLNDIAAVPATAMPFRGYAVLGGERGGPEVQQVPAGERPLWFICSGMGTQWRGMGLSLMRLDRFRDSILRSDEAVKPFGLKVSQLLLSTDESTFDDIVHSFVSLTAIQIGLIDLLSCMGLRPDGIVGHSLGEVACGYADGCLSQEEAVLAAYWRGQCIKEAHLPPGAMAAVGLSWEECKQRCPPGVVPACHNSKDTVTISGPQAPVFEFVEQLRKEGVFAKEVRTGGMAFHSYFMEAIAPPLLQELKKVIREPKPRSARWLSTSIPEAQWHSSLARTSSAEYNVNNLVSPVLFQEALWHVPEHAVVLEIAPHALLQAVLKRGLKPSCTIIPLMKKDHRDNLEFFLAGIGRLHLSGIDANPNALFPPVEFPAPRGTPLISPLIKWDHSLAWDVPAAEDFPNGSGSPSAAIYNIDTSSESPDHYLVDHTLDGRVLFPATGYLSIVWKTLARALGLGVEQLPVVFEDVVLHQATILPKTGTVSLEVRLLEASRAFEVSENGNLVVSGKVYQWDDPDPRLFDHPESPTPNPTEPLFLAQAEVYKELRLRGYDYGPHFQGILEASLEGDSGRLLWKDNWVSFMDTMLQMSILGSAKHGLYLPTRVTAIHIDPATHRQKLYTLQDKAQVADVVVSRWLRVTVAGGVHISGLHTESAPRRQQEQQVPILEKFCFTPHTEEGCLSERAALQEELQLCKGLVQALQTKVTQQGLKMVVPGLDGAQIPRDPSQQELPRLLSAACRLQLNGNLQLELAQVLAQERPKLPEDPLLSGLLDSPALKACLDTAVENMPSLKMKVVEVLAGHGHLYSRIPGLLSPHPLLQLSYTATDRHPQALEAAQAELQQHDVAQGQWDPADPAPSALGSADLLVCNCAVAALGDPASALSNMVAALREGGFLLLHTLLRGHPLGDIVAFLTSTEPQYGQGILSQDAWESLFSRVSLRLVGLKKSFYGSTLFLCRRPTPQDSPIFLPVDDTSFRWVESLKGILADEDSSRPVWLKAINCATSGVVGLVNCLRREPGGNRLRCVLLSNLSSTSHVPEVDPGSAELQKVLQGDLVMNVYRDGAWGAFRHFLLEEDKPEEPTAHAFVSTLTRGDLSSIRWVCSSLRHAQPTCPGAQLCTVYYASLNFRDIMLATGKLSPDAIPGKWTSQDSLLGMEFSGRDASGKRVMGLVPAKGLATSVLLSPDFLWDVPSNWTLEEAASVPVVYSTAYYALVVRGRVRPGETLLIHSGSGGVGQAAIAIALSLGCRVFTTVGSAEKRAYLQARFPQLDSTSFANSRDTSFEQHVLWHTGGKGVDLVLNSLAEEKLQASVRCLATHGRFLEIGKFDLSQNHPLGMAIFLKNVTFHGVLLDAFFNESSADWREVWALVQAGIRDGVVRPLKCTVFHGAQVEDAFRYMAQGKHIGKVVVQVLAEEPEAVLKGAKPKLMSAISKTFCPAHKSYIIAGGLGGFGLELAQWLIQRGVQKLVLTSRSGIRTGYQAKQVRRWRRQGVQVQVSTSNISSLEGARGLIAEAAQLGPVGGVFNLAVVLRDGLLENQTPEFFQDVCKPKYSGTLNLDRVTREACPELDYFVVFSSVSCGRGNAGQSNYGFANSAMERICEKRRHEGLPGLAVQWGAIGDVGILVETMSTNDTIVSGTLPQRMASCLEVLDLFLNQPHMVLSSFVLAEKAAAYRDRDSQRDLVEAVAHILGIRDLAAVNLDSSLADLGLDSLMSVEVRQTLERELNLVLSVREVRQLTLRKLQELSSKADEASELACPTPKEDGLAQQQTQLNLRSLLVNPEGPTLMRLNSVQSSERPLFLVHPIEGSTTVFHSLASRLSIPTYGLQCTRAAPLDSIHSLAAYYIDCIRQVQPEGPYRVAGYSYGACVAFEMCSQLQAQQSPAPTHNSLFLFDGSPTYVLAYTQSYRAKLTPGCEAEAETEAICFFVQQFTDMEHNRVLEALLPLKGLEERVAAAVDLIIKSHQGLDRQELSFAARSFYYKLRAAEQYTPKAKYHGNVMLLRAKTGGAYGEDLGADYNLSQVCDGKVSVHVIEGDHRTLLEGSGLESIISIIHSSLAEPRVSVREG

For `COc1ccccc1C(=O)Nc1nc(-c2ccc(S(=O)(=O)N3CCOCC3)cc2)cs1`, the IC50 [1] was 3.81 µM (active), the IC50 [2] was > 66.2 µM (inactive) and the IC50 [3] was 7.79 µM (active). The IC50 [4] was > 16.6 µM (inactive), the IC50 [5] was > 80 µM (inactive) and the IC50 [6] was 3.59 µM (active). For the same compound, the IC50 [7] was 17.5 µM (inactive), the AC50 [8] was 4.34 µM (active) and the AC50 [9] was 3.17 µM (active). The AC50 [10] was 1.21 µM (active), the AC50 [11] was 51.8 µM (active) and the IC50 [12] was 8.4 µM (active). For the same compound, the AC50 [13] was 2.34 µM (active), the IC50 [14] was 5.93 µM (active) and the IC50 [15] was 10.9 µM (active).
In the case of `Nc1cc(-c2ccccc2)nn1S(=O)(=O)c1ccc(F)c(Cl)c1`, the IC50 [16] is reported as > 20 µM (inactive), the IC50 [17] is reported as > 20 µM (inactive) and the IC50 [18] is reported as > 20 µM (inactive). The IC50 [19] was > 20 µM (inactive).
In the case of `COc1ccc(NC(=O)c2ccc(CN3CCc4ccccc4C3)cc2)cc1`, the IC50 [20] is reported as 0.65 µM (active), the IC50 [21] is reported as 0.513 µM (active) and the IC50 [22] is reported as > 20 µM (inactive).
For `COC(=O)CC1=NN(c2ccccc2)C(=O)/C1=C/Nc1ccc(C)cc1`, the IC50 [20] was > 20 µM (inactive), the IC50 [21] was > 20 µM (inactive) and the IC50 [22] was > 20 µM (inactive).
